Tests used:
[1] = Solubility in water and aqueous buffers (statement); type: physicochemical; details: drospirenone: in water and aqueous buffers at various pH values
[2] = Absolute bioavailability of drospirenone after oral administration; type: in vivo, women
[3] = human, in vivo, po
Procedure: 42 healthy women between 18 and 35 years of age were included in an open-label crossover study after their informed consent had been obtained. The aim of the study was to investigate the relative bioavailability of drospirenone and ethinylestradiol from a tablet formulation containing 3 mg drospirenone and 0.03 mg ethinylestradiol with reference to an oral suspension containing 6 mg of drospirenone and 0.06 mg ethinylestradiol per vial.
The bioavailability was determined using serum concentrations of each active agent as parameters.

[4] = Chemical stability under acid and alkaline conditions (statement); type: physicochemical

| solubility [1] | bioavailability ([2]; human, in vivo, oral administration of a microcrystalline suspension containing 3.13 mg drospirenone to 6 postmenopausal women) [%] | absolute bioavailability ([2]; oral administration of 2 mg drospirenone to 8 young healthy women) | relative bioavailability [3] [%] | stability under acid conditions ([4]; acid conditions) | stability under alkaline conditions ([4]; alkaline conditions) | Compound |
| --- | --- | --- | --- | --- | --- | --- |
| sparingly soluble | 85 | 76%±13% | 107 | rearranged to an inactive isomer | hydrolysed | C[C@]12CCC(=O)C=C1[C@@H]1C[C@@H]1[C@H]1[C@@H]3[C@@H]4C[C@@H]4[C@@]4(CCC(=O)O4)[C@@]3(C)CC[C@@H]12 [drospirenone, 6β,7β;15β,16β-dimethylene-3-oxo-17α-pregn-4-ene-21,17-carbolactone] |
| sparingly soluble | – | – | 117 | – | – | C#C[C@]1(O)CC[C@H]2[C@@H]3CCc4cc(O)ccc4[C@H]3CC[C@@]21C [ethinylestradiol, 17α-ethinylestradiol] |

Source: EP1598069A2, “Pharmaceutical combination of ethinylestradiol and drospirenone for use as a contraceptive” (Schering Aktiengesellschaft, priority 1999, dated 2001)
